# Legend:
# [1] = target: T1, N-lysine methyltransferase SMYD2 (Homo sapiens, UniProt Q9NRG4); experiment: Inhibition of SMYD2 (unknown origin) assessed as residual activity at 10 uM using 3H-SAM as substrate incubated for 1 hr by filter binding method relative to control
# [2] = target: T1, N-lysine methyltransferase SMYD2; experiment: Inhibition of SMYD2 (unknown origin) using 3H-SAM as substrate incubated for 1 hr by filter binding method
# [3] = tested on: Ca-Ski; experiment: cells; assay type: functional, cell-based; details: Homo sapiens, 72 h
# Description: Antiproliferative activity against human Ca-Ski cells assessed as inhibition of cell growth incubated for 72 hrs by CellTiter-Glo luminescent cell viability assay
# [4] = tested on: MDA-MB-231; experiment: Antiproliferative activity against human MDA-MB-231 cells assessed as inhibition of cell growth incubated for 72 hrs by CellTiter-Glo luminescent cell viability assay; assay type: functional, cell-based; details: MDA-MB-231, 72 h
# [5] = tested on: HEK293; experiment: Induction of apoptosis in HEK293 cells assessed as increase in cleaved PARP level incubated for 24 hrs by immunoblot analysis; assay type: toxicity, cell-based; details: human, hek293, 24 h, DDE = dose-dependent effect, dose 0.0195-10 µM
# [6] = tested on: HEK293; experiment: Induction of apoptosis in HEK293 cells assessed as increase in cleaved PARP level at 0.0195 to 10 uM incubated for 24 hrs by immunoblot analysis; assay type: toxicity, cell-based; details: human, hek293, 24 h, dose 0.0195-10 µM
# T1 sequence (Q9NRG4 whole entry): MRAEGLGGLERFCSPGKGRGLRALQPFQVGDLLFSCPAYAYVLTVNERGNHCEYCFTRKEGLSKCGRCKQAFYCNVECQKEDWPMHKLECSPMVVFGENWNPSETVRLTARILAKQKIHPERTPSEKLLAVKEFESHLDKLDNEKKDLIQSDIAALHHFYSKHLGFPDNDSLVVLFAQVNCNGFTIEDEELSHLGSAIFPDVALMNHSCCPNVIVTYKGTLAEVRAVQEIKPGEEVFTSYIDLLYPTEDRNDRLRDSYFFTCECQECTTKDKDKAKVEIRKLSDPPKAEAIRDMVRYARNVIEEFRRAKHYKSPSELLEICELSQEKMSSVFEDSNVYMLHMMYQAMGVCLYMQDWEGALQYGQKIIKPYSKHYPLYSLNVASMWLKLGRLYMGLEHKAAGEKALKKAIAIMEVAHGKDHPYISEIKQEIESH
Activity [1] [%],IC50 [2] [µM],SMILES,further results
64.6,> 20,CN1C(=O)C(CCNc2cnc3ccccc3c2)COC12C=CC(=O)C=C2 (stereo not given),–
42.5,> 20,CC(C)N1C(=O)C(Cc2cccc(Br)c2)COC12C=CC(=O)C=C2 (stereo not given),–
80.7,> 20,CC(C)N1C(=O)C(Cc2ccc(C#N)cc2)COC12C=CC(=O)C=C2 (stereo not given),–
–,0.678,CC(C)[Si](OCCC1COC2(C=CC(=O)C=C2)N(C)C1=O)(C(C)C)C(C)C (stereo not given),–
–,> 30,N#Cc1cccc(-n2cc(CC3COC4(C=CC(=O)C=C4)N(c4ccccc4)C3=O)nn2)c1 (stereo not given),–
6.72,2.39,CC(C)N1C(=O)C(Cc2cc(C(F)(F)F)cc(C(F)(F)F)c2)COC12C=CC(=O)C=C2 (stereo not given),IC50 [3]: 0.733 µM; IC50 [4]: 1.03 µM; Activity [5]: Dde
74.2,> 20,CN1C(=O)C(CCNc2cccnc2)COC12C=CC(=O)C=C2 (stereo not given),–
36,> 20,CC(C)N1C(=O)C(Cc2ccc(F)cc2)COC12C=CC(=O)C=C2 (stereo not given),–
47.2,> 20,CC(C)N1C(=O)C(Cc2c(F)cccc2C(F)(F)F)COC12C=CC(=O)C=C2 (stereo not given),–
–,–,O=C1COc2c(CCNCCN(C(=O)CCNCCc3ccc(Cl)c(Cl)c3)C3CCCCC3)ccc(O)c2N1,IC50 [4]: 13.1 µM; Activity [6]: Non-Toxic
–,> 30,CN1C(=O)C(CCO)COC12C=CC(=O)C=C2 (stereo not given),–
27.8,> 20,CC(C)N1C(=O)C(Cc2cc(C(F)(F)F)ccc2Cl)COC12C=CC(=O)C=C2 (stereo not given),–
45.1,> 20,CN1C(=O)C(CCNc2ccccc2)COC12C=CC(=O)C=C2 (stereo not given),–
–,–,CN[C@@H]1C[C@H]2O[C@@](C)([C@@H]1OC)n1c3ccccc3c3c4c(c5c6ccccc6n2c5c31)C(=O)NC4 [STAUROSPORINE],IC50 [4]: 0.000858 µM
–,> 30,CN1C(=O)C(CCO[Si](C)(C)C(C)(C)C)COC12C=CC(=O)C=C2 (stereo not given),–
41.4,> 20,CC(C)N1C(=O)C(Cc2ccc(Cl)cc2)COC12C=CC(=O)C=C2 (stereo not given),–
–,18.5,O=C1C=CC2(C=C1)OCC(Cc1cc(C(F)(F)F)cc(C(F)(F)F)c1)C(=O)N2c1ccccc1 (stereo not given),IC50 [3]: 0.879 µM; IC50 [4]: 1.64 µM
14.2,5.55,COc1ccc(N2CCCCC2)c(NCCC2COC3(C=CC(=O)C=C3)N(C)C2=O)c1 (stereo not given),–
